From the NIST ThermoML archive (doi:10.1021/je049612f)

Details: Gas, Vibrating wire viscometry

FS(F)(F)(F)(F)F [sulfur hexafluoride]
Details	viscosity [mPa·s]
316 K, 913.9 kPa	0.01629
316 K, 955.92 kPa	0.01631
316 K, 994.72 kPa	0.01634
316 K, 1031.1 kPa	0.01635
316 K, 1084.1 kPa	0.01638
316 K, 1120.4 kPa	0.01641
316 K, 1178.3 kPa	0.01644
316 K, 1215.2 kPa	0.01646
316 K, 1257.3 kPa	0.0165
316 K, 1314.3 kPa	0.01654
316 K, 1374.4 kPa	0.01658
316 K, 1422.9 kPa	0.01662
316 K, 1465.6 kPa	0.01665
316 K, 1530.4 kPa	0.01671
316 K, 1572.7 kPa	0.01674
316 K, 1609.8 kPa	0.01678
316 K, 1667.2 kPa	0.01684
316 K, 1724.2 kPa	0.01689
316 K, 1772.5 kPa	0.01694
316 K, 1821.1 kPa	0.017
316 K, 1860.3 kPa	0.01704
316 K, 1922.7 kPa	0.01711
316 K, 1988.5 kPa	0.0172
316 K, 2021.6 kPa	0.01725
316 K, 2087.4 kPa	0.01733
316 K, 2155.2 kPa	0.01744
316 K, 2223.8 kPa	0.01755
316 K, 2273.2 kPa	0.01763
316 K, 2319.1 kPa	0.01771
316 K, 2375.8 kPa	0.01781
316 K, 2448.5 kPa	0.01796
316 K, 2510 kPa	0.01809
316 K, 2587.2 kPa	0.01826
316 K, 2658.2 kPa	0.01844
316 K, 2724.3 kPa	0.01862
316 K, 2792.7 kPa	0.01883
316 K, 2860.9 kPa	0.01906
316 K, 2916.5 kPa	0.01925
316 K, 2981.1 kPa	0.0195
316 K, 3007.9 kPa	0.01963
316 K, 3070 kPa	0.01992
316 K, 3135.2 kPa	0.02025
321 K, 77.46 kPa	0.01627
321 K, 97.02 kPa	0.01627
321 K, 114.16 kPa	0.01627
321 K, 146.57 kPa	0.01628
321 K, 169.96 kPa	0.01629
321 K, 205.62 kPa	0.01629
321 K, 239.58 kPa	0.0163
321 K, 264.1 kPa	0.0163
321 K, 293.39 kPa	0.01631
321 K, 339.65 kPa	0.01632
321 K, 374.89 kPa	0.01633
321 K, 400.93 kPa	0.01634
321 K, 428.98 kPa	0.01634
321 K, 457.31 kPa	0.01635
321 K, 488.99 kPa	0.01636
321 K, 523.86 kPa	0.01637
321 K, 563.16 kPa	0.01638
321 K, 592.18 kPa	0.01639
321 K, 633.22 kPa	0.01641
321 K, 681.18 kPa	0.01643
321 K, 732.46 kPa	0.01644
321 K, 790.88 kPa	0.01647
321 K, 823.55 kPa	0.01648
321 K, 857.52 kPa	0.0165
321 K, 896.2 kPa	0.01652
321 K, 934.23 kPa	0.01654
321 K, 969 kPa	0.01655
321 K, 1031.4 kPa	0.01658
321 K, 1089.4 kPa	0.01662
321 K, 1125 kPa	0.01664
321 K, 1178.7 kPa	0.01667
321 K, 1223.2 kPa	0.0167
321 K, 1282.4 kPa	0.01674
321 K, 1340 kPa	0.01678
321 K, 1386.2 kPa	0.01682
321 K, 1431.8 kPa	0.01686
321 K, 1483.3 kPa	0.01689
321 K, 1538.9 kPa	0.01694
321 K, 1647 kPa	0.01703
321 K, 1693.1 kPa	0.01708
321 K, 1744.5 kPa	0.01713
321 K, 1788.6 kPa	0.01718
321 K, 1847.4 kPa	0.01724
